Like-named read-outs stand apart in the source and are kept apart here. Peptide text beside a SMILES is read from it. * marks the point of attachment. βNA = c1ccc2cc(N*)ccc2c1
Legend:
Assay type in all cases: biochemical
B. asaccharolyticus = settings: β-naphthylamine liberated after 60 minutes, 37° C.
Outline: (§1)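 N-CBz-glycyl-glycyl-L-arginine-β-naphthylamide was hydrolysed for 1 hour at 37 °C, then coupled with Fast Garnet GBC (0.5 mg/ml) in 1M acetic acid buffer, pH 4.2, containing 10% Tween 20. After 15 minutes at room temperature, absorbance was read at 525 nm against a no-enzyme blank; activity is given as nmol β-naphthylamine released per 60 min.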

B. levii = settings: β-naphthylamine liberated after 60 minutes, 37° C.
Outline: as §1

B. loescheii = settings: β-naphthylamine liberated after 60 minutes, 37° C.
Outline: as §1

B. mel. ss. intermedius = settings: β-naphthylamine liberated after 60 minutes, 37° C.
Outline: as §1

Bacteroides gingivalis = settings: β-naphthylamine liberated after 60 minutes, 37° C.
Outline: as §1

C. ochracea = settings: strain ATCC 27872; β-naphthylamine liberated after 60 minutes, 37° C.
Outline: as §1

Capnocytophaga sp. = settings: strain JD3-5; β-naphthylamine liberated after 60 minutes, 37° C.
Outline: as §1

"Anaerobic vibrio" = settings: strain SN2T2; β-naphthylamine liberated after 60 minutes, 37° C.
Outline: (§2)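 Readout: absorbance at 525 nm (or visual match to standard solutions) after diazo coupling with Fast Garnet GBC. Substrate N-CBz-glycyl-glycyl-L-arginine-β-naphthylamide, 1 h, 37° C. Values = nmol β-naphthylamine released per 60 min; no-enzyme mixture as control.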

A. seminis = settings: strain ATCC 15768; β-naphthylamine liberated after 60 minutes, 37° C.
Outline: as §2

A. viscosus = settings: β-naphthylamine liberated after 60 minutes, 37° C.
Outline: as §2

[1] = system: Actinobacillus actinomycetemcomitans; settings: β-naphthylamine liberated after 60 minutes, 37° C.
Outline: as §2

Actinomyces israeli = settings: β-naphthylamine liberated after 60 minutes, 37° C.
Outline: as §2

Campylobacter sputorum = settings: strain Ba1-21; β-naphthylamine liberated after 60 minutes, 37° C.
Outline: as §2

Eikenella corrodens = settings: strain BP1-6; β-naphthylamine liberated after 60 minutes, 37° C.
Outline: as §2

Fusobacterium nucleatum = settings: β-naphthylamine liberated after 60 minutes, 37° C.
Outline: as §2

S. mutans = settings: strain ATCC 25175; β-naphthylamine liberated after 60 minutes, 37° C.
Outline: as §2

S. sanguis = settings: β-naphthylamine liberated after 60 minutes, 37° C.
Outline: as §2

Streptococcus mitis = settings: β-naphthylamine liberated after 60 minutes, 37° C.
Outline: as §2

V. parvula = settings: strain ATCC 10790; β-naphthylamine liberated after 60 minutes, 37° C.
Outline: as §2

Veillonella sp. = settings: strain SE1M2; β-naphthylamine liberated after 60 minutes, 37° C.
Outline: as §2

A. equuli = test: Aminopeptidase activity on β-naphthylamide substrates; settings: strain ATCC 19392; β-naphthylamine liberated after 60 minutes, 37° C.
Outline: as §2

A. suis = test: as above; settings: strain ATCC 15557; β-naphthylamine liberated after 60 minutes, 37° C.
Outline: as §2

F. periodonticum = test: as above; settings: strain EK1-15; β-naphthylamine liberated after 60 minutes, 37° C.
Outline: as §2

Haemophilus aphrophilus = test: as above; settings: β-naphthylamine liberated after 60 minutes, 37° C.
Outline: as §2

L. fermentum = test: as above; settings: strain ATCC 11581; β-naphthylamine liberated after 60 minutes, 37° C.
Outline: as §2

Lactobacillus casei = test: as above; settings: β-naphthylamine liberated after 60 minutes, 37° C.
Outline: as §2

S. salivarius = test: as above; settings: β-naphthylamine liberated after 60 minutes, 37° C.
Outline: as §2

Measured: Aminopeptidase activity

C[C@H](N)C(=O)N[C@@H](C)C(=O)N[C@@H](Cc1ccccc1)C(=O)Nc1ccc2ccccc2c1 [Ala-Ala-Phe] (H-Ala-Ala-Phe-βNA)
4 nmol: A. viscosus; strain T14V
1 nmol: B. loescheii; strain ATCC 15930 | Bacteroides gingivalis; strain ATCC 33277 | [1]; strain 75 | [1]; strain NCTC 9709 | S. sanguis; strain ATCC 10557 | Streptococcus mitis; strain ATCC 15909 | F. periodonticum
5 nmol: L. fermentum
3 nmol: Bacteroides gingivalis; strain FAYE 19m-1 | [1]; strain 67 | Actinomyces israeli; strain ATCC 12103 | Fusobacterium nucleatum; strain ATCC 25586 | Streptococcus mitis; strain ATCC 9815 | Lactobacillus casei; strain ATCC 11578 | Lactobacillus casei; strain ATCC 11582
82 nmol: C. ochracea
2 nmol: A. viscosus; strain ATCC 19246 | Fusobacterium nucleatum; strain 2 | S. sanguis; strain ATCC 10556
0 nmol: B. asaccharolyticus; strain 536B | B. asaccharolyticus; strain ATCC 18569 | B. asaccharolyticus; strain ATCC 25260 | B. asaccharolyticus; strain ATCC 27067 | B. asaccharolyticus; strain NY446 | B. levii; strain 18-1-5 | B. levii; strain 18-1-8 | B. loescheii; strain VPI4196 | B. mel. ss. intermedius; strain ATCC 25261 | B. mel. ss. intermedius; strain ATCC 33563 | B. mel. ss. intermedius; strain NCTC 9336 | Bacteroides gingivalis; strain 9-14K-1 | Bacteroides gingivalis; strain 11-1-2 | Bacteroides gingivalis; strain 381 | Bacteroides gingivalis; strain 1021 | Capnocytophaga sp. | "Anaerobic vibrio" | A. seminis | [1]; strain ATCC 29523 | [1]; strain Y4 | Actinomyces israeli; strain DK2-3 | Campylobacter sputorum | Eikenella corrodens | Fusobacterium nucleatum; strain D31A-24 | S. mutans | Streptococcus mitis; strain ATCC 15911 | Streptococcus mitis; strain ATCC 15912 | V. parvula | Veillonella sp. | A. equuli | A. suis | Haemophilus aphrophilus; strain ATCC 13252 | Haemophilus aphrophilus; strain ATCC 19415 | Haemophilus aphrophilus; strain NCTC 5908 | Lactobacillus casei; strain ATCC 7469 | S. salivarius; strain ATCC 9759 | S. salivarius; strain ATCC 25975

Cl.N=C(N)NCCC[C@H](NC(=O)CNC(=O)CNC(=O)OCc1ccccc1)C(=O)Nc1ccc2ccccc2c1 [N-CBz-Gly-Gly-Arg, N-carbobenzoxy-glycyl-glycyl-L-arginine-β-naphthylamide hydrochloride]
44 nmol: Bacteroides gingivalis; strain 1021
61 nmol: Bacteroides gingivalis; strain 9-14K-1
1 nmol: B. asaccharolyticus; strain 536B | B. levii; strain 18-1-8 | B. loescheii; strain ATCC 15930 | B. mel. ss. intermedius; strain ATCC 33563 | B. mel. ss. intermedius; strain NCTC 9336 | "Anaerobic vibrio" | A. seminis | [1]; strain NCTC 9709 | Haemophilus aphrophilus; strain ATCC 13252 | Haemophilus aphrophilus; strain ATCC 19415
91 nmol: Bacteroides gingivalis; strain 381
143 nmol: Bacteroides gingivalis; strain FAYE 19m-1
84 nmol: Bacteroides gingivalis; strain ATCC 33277
0 nmol: B. asaccharolyticus; strain ATCC 18569 | B. asaccharolyticus; strain ATCC 25260 | B. asaccharolyticus; strain ATCC 27067 | B. levii; strain 18-1-5 | B. loescheii; strain VPI4196 | B. mel. ss. intermedius; strain ATCC 25261 | Capnocytophaga sp. | A. viscosus; strain ATCC 19246 | A. viscosus; strain T14V | [1]; strain 67 | [1]; strain 75 | [1]; strain ATCC 29523 | [1]; strain Y4 | Actinomyces israeli; strain ATCC 12103 | Actinomyces israeli; strain DK2-3 | Campylobacter sputorum | Eikenella corrodens | Fusobacterium nucleatum; strain ATCC 25586 | S. mutans | S. sanguis; strain ATCC 10556 | S. sanguis; strain ATCC 10557 | Streptococcus mitis; strain ATCC 9815 | Streptococcus mitis; strain ATCC 15909 | Streptococcus mitis; strain ATCC 15912 | V. parvula | Veillonella sp. | A. equuli | A. suis | F. periodonticum | Haemophilus aphrophilus; strain NCTC 5908 | L. fermentum | Lactobacillus casei; strain ATCC 7469 | Lactobacillus casei; strain ATCC 11578 | Lactobacillus casei; strain ATCC 11582 | S. salivarius; strain ATCC 9759 | S. salivarius; strain ATCC 25975
2 nmol: B. asaccharolyticus; strain NY446 | Fusobacterium nucleatum; strain D31A-24
3 nmol: Fusobacterium nucleatum; strain 2
92 nmol: Bacteroides gingivalis; strain 11-1-2
8 nmol: C. ochracea

From patent US4994376A, “Detection of bacteroides gingivalis” (priority 1987, dated 1991)
